# pEC50: −log10 of the molar value. Like-named read-outs stand apart in the source and are kept apart here. Where a SMILES comes first, the peptide text is derived from it. [ ]: non-standard residue; d: D form. Aib = CC(C)(N)C(=O)O
# Columns and labels:
# [1] = tested on: Mouse monocyte/macrophage cell line, RAW 264.7; assay: Cholesterol efflux assay (3H-cholesterol, macrophage cell line); format: cell-based; conditions: RAW 264.7, 4 hrs incubation, 0.1% human serum albumin; for 4 h Cholesterol Efflux Emax: ABCA1-mediated efflux; for pEC50: read-out: 4 h Cholesterol Efflux EC50, ABCA1-mediated efflux (CPT-cAMP induced minus non-induced)
# human GLP-1 receptor = human GLP-1 receptor (Homo sapiens, UniProt P43220); assay: Functional GLP-1 receptor assay, in vitro potency (CRE luciferase; whole cells); format: cell-based; conditions: BHK cells expressing human GLP-1 receptor
# [2] = Pharmacokinetics in mini-pigs after i.v. administration; conditions: female, Göttingen, minipig, iv, 5 nmol/kg
# Description: The aim of the study is to assess the pharmacokinetic properties of the compounds of the invention, in mini-pigs.
# Göttingen mini-pigs female, 15-20 kg, purchased from Ellegaard Mini-pigs, Denmark, were housed in the Animal Unit, Novo Nordisk A/S and were kept and handled according to normal procedure in the Animal Unit. After minimum 2 weeks of acclimatization two permanent central venous catheters were implemented in vena cava caudalis in each animal. After surgery the animals were in their normal individual pens during the pharmacokinetic experiments.
# Intravenous injections were given through the central short catheter, which was flushed with min 10 ml of sterile saline post administration. The test substance was dosed at 5 nmol/kg, N=3, in a volume of 0.05 ml/kg.
# On day 1 the catheters are coupled to extension tubes, which will be removed at the end of day 1.
# Samples were kept on wet ice until centrifugation (10 min, 4° C., 1942 g). Afterwards, plasma (min. 100 μl) was transferred immediately to Micronic tubes and kept at −20° C. until analysis. The plasma samples were analysed by an immunoaasay described below.
# The plasma concentrations of the peptides with intact N-terminus were determined using a Luminescence Oxygen Chanelling Immuno-assay (LOCI). The donor beads were coated with streptavidin, while acceptor beads were conjugated with a monoclonal antibody recognizing a mid-/C-terminal epitope of the peptide. The other monoclonal antibody, specific for the N-terminus, was biotinylated. The three reactants were combined with the analyte and formed a two-sited immuno-complex. Illumination of the complex released singlet oxygen atoms from the donor beads, which were channeled into the acceptor beads and triggered chemi-luminescence which was measured in an Envision plate reader. The amount of light was proportional to the concentration of the compound.
# Plasma concentration-time profiles was analysed by a non-compartmental pharmacokinetics analysis using Phoenix (Pharsight Inc., Mountain View, Calif., USA). Calculations were performed using individual concentration-time values from each animal.
# [3] = 0% HSA, read-out: GLP1R CRE luc 0% HSA EC50 Mean Value
# [4] = GLP1R CRE luc 1% HSA EC50 Mean Value, 1% HSA
# [5] = plasma, T1/2 Mean Value, Göttingen mini-pigs, N=3
# Chain of human GLP-1 receptor (P43220 24-463): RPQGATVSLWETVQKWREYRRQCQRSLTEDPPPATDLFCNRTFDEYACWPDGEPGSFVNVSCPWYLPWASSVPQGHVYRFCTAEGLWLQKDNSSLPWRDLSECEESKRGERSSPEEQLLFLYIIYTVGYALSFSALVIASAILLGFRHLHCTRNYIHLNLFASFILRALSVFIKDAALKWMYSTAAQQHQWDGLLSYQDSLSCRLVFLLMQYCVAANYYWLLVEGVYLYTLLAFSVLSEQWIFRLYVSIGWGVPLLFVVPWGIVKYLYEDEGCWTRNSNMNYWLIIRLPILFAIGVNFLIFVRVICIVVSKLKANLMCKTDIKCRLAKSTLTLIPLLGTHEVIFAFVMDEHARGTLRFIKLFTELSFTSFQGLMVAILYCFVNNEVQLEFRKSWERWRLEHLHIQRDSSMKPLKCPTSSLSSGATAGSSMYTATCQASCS
SMILES,pEC50 (human GLP-1 receptor; [3]),pEC50 (human GLP-1 receptor; [4]),C0 ([2]; plasma),Vd ([2]; plasma),clearance ([2]; plasma),"half-life [2, 5]",C0 ([2]; in vivo),Vd ([2]; in vivo),clearance ([2]; in vivo),half-life ([2]; in vivo),"half-life ([2]; plasma, T1/2, mini-pigs)",4 h Cholesterol Efflux Emax [1],pEC50 [1]
"CC[C@H](C)[C@H](NC(=O)[C@H](Cc1ccccc1)NC(=O)[C@H](CCC(=O)O)NC(=O)[C@H](CCCCN)NC(=O)[C@H](C)NC(=O)[C@H](C)NC(=O)[C@H](CCC(N)=O)NC(=O)CNC(=O)[C@H](CCC(=O)O)NC(=O)[C@H](CC(C)C)NC(=O)[C@H](Cc1ccc(O)cc1)NC(=O)[C@H](CO)NC(=O)[C@H](CO)NC(=O)[C@@H](NC(=O)[C@H](CC(=O)O)NC(=O)[C@H](CO)NC(=O)[C@@H](NC(=O)[C@H](Cc1ccccc1)NC(=O)[C@@H](NC(=O)CNC(=O)[C@H](CCC(=O)O)NC(=O)C(C)(C)NC(=O)[C@@H](N)Cc1c[nH]cn1)[C@@H](C)O)[C@@H](C)O)C(C)C)C(=O)N[C@@H](C)C(=O)N[C@@H](Cc1c[nH]c2ccccc12)C(=O)N[C@@H](CC(C)C)C(=O)N[C@H](C(=O)N[C@@H](CCC(=O)O)C(=O)N[C@@H](CCCCN)C(=O)NC(C)(C)C(=O)N[C@@H](CCCCN)C(=O)N[C@@H](CCC(=O)O)C(=O)N[C@@H](Cc1ccccc1)C(=O)N[C@@H](CC(C)C)C(N)=O)C(C)C [Compound 45, [Aib8,Glu34,Lys35,Aib36,Lys37]-GLP-1-(7-37)-peptidyl-Glu-Phe-Leu amide]",9.97,10.38,147 nM,0.154 L/kg,2.39 mL/h/kg,2690 min,,,,,,97%,
"CC[C@H](C)[C@H](NC(=O)[C@H](Cc1ccccc1)NC(=O)[C@H](CCC(=O)O)NC(=O)[C@H](CCCCN)NC(=O)[C@@H](NC(=O)[C@H](C)NC(=O)[C@H](CCC(=O)O)NC(=O)CNC(=O)[C@H](CCC(=O)O)NC(=O)[C@H](CC(C)C)NC(=O)[C@H](Cc1ccc(O)cc1)NC(=O)[C@H](CO)NC(=O)[C@H](CO)NC(=O)[C@@H](NC(=O)[C@H](CC(=O)O)NC(=O)[C@H](CO)NC(=O)[C@@H](NC(=O)[C@H](Cc1ccccc1)NC(=O)[C@@H](NC(=O)CNC(=O)[C@H](CCC(=O)O)NC(=O)C(C)(C)NC(=O)[C@@H](N)Cc1c[nH]cn1)[C@@H](C)O)[C@@H](C)O)C(C)C)C(C)C)C(=O)N[C@@H](C)C(=O)N[C@@H](Cc1c[nH]c2ccccc12)C(=O)N[C@@H](CC(C)C)C(=O)N[C@H](C(=O)N[C@@H](CCC(=O)O)C(=O)N[C@@H](CCCCN)C(=O)NC(C)(C)C(=O)N[C@@H](CCCCN)C(=O)N[C@@H](CCC(=O)O)C(=O)N[C@@H](Cc1ccccc1)C(=O)N[C@@H](CC(C)C)C(=O)N[C@@H](CCC(=O)O)C(=O)N[C@@H](CCCCN)C(=O)N[C@H](C(N)=O)C(C)C)C(C)C [Compound 54, [Aib8,Glu23,Val25,Glu34,Lys35,Aib36,Lys37]-GLP-1-(7-37)-peptidyl-Glu-Phe-Leu-Glu-Lys-Val amide]",,,136 nM,0.0802 L/kg,1.31 mL/h/kg,2440 min,,,,,,121%,
"CC[C@H](C)[C@H](NC(=O)[C@H](Cc1ccccc1)NC(=O)[C@H](CCC(=O)O)NC(=O)[C@H](CCCCN)NC(=O)[C@@H](NC(=O)[C@H](C)NC(=O)[C@H](CCC(=O)O)NC(=O)CNC(=O)[C@H](CCC(=O)O)NC(=O)[C@H](CC(C)C)NC(=O)[C@H](Cc1ccc(O)cc1)NC(=O)[C@H](CO)NC(=O)[C@H](CO)NC(=O)[C@@H](NC(=O)[C@H](CC(=O)O)NC(=O)[C@H](CO)NC(=O)[C@@H](NC(=O)[C@H](Cc1ccccc1)NC(=O)[C@@H](NC(=O)CNC(=O)[C@H](CCC(=O)O)NC(=O)C(C)(C)NC(=O)[C@@H](N)Cc1c[nH]cn1)[C@@H](C)O)[C@@H](C)O)C(C)C)C(C)C)C(=O)N[C@@H](C)C(=O)N[C@@H](Cc1c[nH]c2ccccc12)C(=O)N[C@@H](CC(C)C)C(=O)N[C@H](C(=O)N[C@@H](CCC(=O)O)C(=O)N[C@@H](CCCCN)C(=O)NC(C)(C)C(=O)N[C@@H](CCCCN)C(=O)N[C@@H](CCC(=O)O)C(=O)N[C@@H](Cc1ccccc1)C(=O)N[C@@H](CC(C)C)C(=O)O)C(C)C [Compound 16, [Aib8,Glu23,Val25,Glu34,Lys35,Aib36,Lys37]-GLP-1-(7-37)-peptidyl-Glu-Phe-Leu]",,,,,,,123 nM,0.0889 L/kg,1.44 mL/h/kg,2570 min,,105%,6.17
"CC[C@H](C)[C@H](NC(=O)[C@H](Cc1ccccc1)NC(=O)[C@H](CCC(=O)O)NC(=O)[C@H](CCCCN)NC(=O)[C@@H](NC(=O)[C@H](C)NC(=O)[C@H](CCC(=O)O)NC(=O)CNC(=O)[C@H](CCC(=O)O)NC(=O)[C@H](CC(C)C)NC(=O)[C@H](Cc1ccc(O)cc1)NC(=O)[C@H](CO)NC(=O)[C@H](CO)NC(=O)[C@@H](NC(=O)[C@H](CC(=O)O)NC(=O)[C@H](CO)NC(=O)[C@@H](NC(=O)[C@H](Cc1ccccc1)NC(=O)[C@@H](NC(=O)CNC(=O)[C@H](CCC(=O)O)NC(=O)C(C)(C)NC(=O)[C@@H](N)Cc1c[nH]cn1)[C@@H](C)O)[C@@H](C)O)C(C)C)C(C)C)C(=O)N[C@@H](C)C(=O)N[C@@H](Cc1c[nH]c2ccccc12)C(=O)N[C@@H](CC(C)C)C(=O)N[C@H](C(=O)N[C@@H](CCC(=O)O)C(=O)N[C@@H](CCCCN)C(=O)N[C@H](C(=O)N[C@@H](CCCCN)C(=O)N[C@@H](CCC(=O)O)C(=O)N[C@@H](Cc1ccccc1)C(=O)N[C@@H](CC(C)C)C(N)=O)C(C)C)C(C)C [Compound 6, [Aib8,Glu23,Val25,Glu34,Lys35,Val36,Lys37]-GLP-1-(7-37)-peptidyl-Glu-Phe-Leu amide] (H-H[Aib]EGTFTSDVSSYLEGEAVKEFIAWLVEKVKEFL-NH2)",,,89.5 nM,0.0904 L/kg,1.64 mL/h/kg,2320 min,,,,,2320 min,92%,

# More lines, main results first:
pEC50 (human GLP-1 receptor; [3]),pEC50 (human GLP-1 receptor; [4]),C0 ([2]; plasma),Vd ([2]; plasma),clearance ([2]; plasma),"half-life [2, 5]",C0 ([2]; in vivo),Vd ([2]; in vivo),clearance ([2]; in vivo),half-life ([2]; in vivo),"half-life ([2]; plasma, T1/2, mini-pigs)",SMILES,4 h Cholesterol Efflux Emax [1],pEC50 [1]
10.23,10.54,62.9 nM,0.0809 L/kg,4.99 mL/h/kg,672 min,,,,,,"CC[C@H](C)[C@H](NC(=O)[C@H](Cc1ccccc1)NC(=O)[C@H](CCC(=O)O)NC(=O)[C@H](CCCCN)NC(=O)[C@@H](NC(=O)[C@H](C)NC(=O)[C@H](CCC(=O)O)NC(=O)CNC(=O)[C@H](CCC(=O)O)NC(=O)[C@H](CC(C)C)NC(=O)[C@H](Cc1ccc(O)cc1)NC(=O)[C@H](CO)NC(=O)[C@H](CO)NC(=O)[C@@H](NC(=O)[C@H](CC(=O)O)NC(=O)[C@H](CO)NC(=O)[C@@H](NC(=O)[C@H](Cc1ccccc1)NC(=O)[C@@H](NC(=O)CNC(=O)[C@H](CCC(=O)O)NC(=O)C(C)(C)NC(=O)[C@@H](N)Cc1c[nH]cn1)[C@@H](C)O)[C@@H](C)O)C(C)C)C(C)C)C(=O)N[C@@H](C)C(=O)N[C@@H](Cc1c[nH]c2ccccc12)C(=O)N[C@@H](CC(C)C)C(=O)N[C@H](C(=O)N[C@@H](CCC(=O)O)C(=O)N[C@@H](CCCCN)C(=O)N[C@H](C(=O)N[C@@H](CCCCN)C(=O)N[C@@H](CCC(=O)O)C(=O)N[C@@H](CCCCN)C(=O)N[C@@H](CC(C)C)C(N)=O)C(C)C)C(C)C [Compound 118, [Aib8,Glu23,Val25,Glu34,Lys35,Val36,Lys37]-GLP-1-(7-37)-peptidyl-Glu-Lys-Leu amide] (H-H[Aib]EGTFTSDVSSYLEGEAVKEFIAWLVEKVKEKL-NH2)",136%,
,,,,,,95.8 nM,0.0921 L/kg,1.2 mL/h/kg,3190 min,,"CC[C@H](C)[C@H](NC(=O)[C@H](Cc1ccccc1)NC(=O)[C@H](CCC(=O)O)NC(=O)[C@H](CCCCN)NC(=O)[C@@H](NC(=O)[C@H](C)NC(=O)[C@H](CCC(=O)O)NC(=O)CNC(=O)[C@H](CCC(=O)O)NC(=O)[C@H](CC(C)C)NC(=O)[C@H](Cc1ccc(O)cc1)NC(=O)[C@H](CO)NC(=O)[C@H](CO)NC(=O)[C@@H](NC(=O)[C@H](CC(=O)O)NC(=O)[C@H](CO)NC(=O)[C@@H](NC(=O)[C@H](Cc1ccccc1)NC(=O)[C@@H](NC(=O)CNC(=O)[C@H](CCC(=O)O)NC(=O)C(C)(C)NC(=O)[C@@H](N)Cc1c[nH]cn1)[C@@H](C)O)[C@@H](C)O)C(C)C)C(C)C)C(=O)N[C@@H](C)C(=O)N[C@@H](Cc1c[nH]c2ccccc12)C(=O)N[C@@H](CC(C)C)C(=O)N[C@H](C(=O)N[C@@H](CCC(=O)O)C(=O)N[C@@H](CCCCN)C(=O)NC(C)(C)C(=O)N[C@@H](CCCCN)C(=O)N[C@@H](CCC(=O)O)C(=O)N[C@@H](Cc1ccccc1)C(=O)N[C@@H](CC(C)C)C(=O)N[C@@H](CCC(=O)O)C(=O)N[C@@H](CCCCN)C(=O)O)C(C)C [Compound 99, [Aib8,Glu23,Val25,Glu34,Lys35,Aib36,Lys37]-GLP-1-(7-37)-peptidyl-Glu-Phe-Leu-Glu-Lys]",99%,6.54

# From patent US20150344540A1, “NOVEL GLP-1 RECEPTOR AGONISTS WITH CHOLESTEROL EFFLUX ACTIVITY” (NOVO NORDISK A/S, priority 2012, published 2015)
